Here are results for two molecules from patent US20030215462A1, “Use of UGT inhibitors to increase bioavailability” (priority 2001, published 2003).

The target of data set [1] is T1, UGT1A1 (Homo sapiens, UniProt P22309).
T1 sequence (P22309 26-533): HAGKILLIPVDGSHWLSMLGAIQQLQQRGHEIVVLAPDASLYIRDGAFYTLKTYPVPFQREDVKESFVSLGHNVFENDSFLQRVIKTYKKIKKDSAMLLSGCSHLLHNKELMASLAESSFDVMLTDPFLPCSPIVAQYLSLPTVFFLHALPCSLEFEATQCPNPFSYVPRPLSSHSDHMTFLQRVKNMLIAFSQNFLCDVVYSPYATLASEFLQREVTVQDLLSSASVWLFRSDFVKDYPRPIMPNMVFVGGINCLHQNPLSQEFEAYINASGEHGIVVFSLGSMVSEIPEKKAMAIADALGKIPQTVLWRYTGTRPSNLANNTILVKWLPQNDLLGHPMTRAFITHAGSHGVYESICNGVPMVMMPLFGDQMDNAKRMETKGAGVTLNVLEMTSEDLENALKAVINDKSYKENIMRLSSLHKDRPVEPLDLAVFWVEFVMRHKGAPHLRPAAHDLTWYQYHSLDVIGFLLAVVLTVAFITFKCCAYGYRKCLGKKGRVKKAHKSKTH
Nature of the data set: Substrate glucuronidation by recombinant UGT1A1. As to conditions: for 7-HFC glucuronidation rate: 7-HFC 50 μM.

The target of data set [2] is T2, UGT1A3 (Homo sapiens, UniProt P35503).
T2 sequence (P35503 29-534): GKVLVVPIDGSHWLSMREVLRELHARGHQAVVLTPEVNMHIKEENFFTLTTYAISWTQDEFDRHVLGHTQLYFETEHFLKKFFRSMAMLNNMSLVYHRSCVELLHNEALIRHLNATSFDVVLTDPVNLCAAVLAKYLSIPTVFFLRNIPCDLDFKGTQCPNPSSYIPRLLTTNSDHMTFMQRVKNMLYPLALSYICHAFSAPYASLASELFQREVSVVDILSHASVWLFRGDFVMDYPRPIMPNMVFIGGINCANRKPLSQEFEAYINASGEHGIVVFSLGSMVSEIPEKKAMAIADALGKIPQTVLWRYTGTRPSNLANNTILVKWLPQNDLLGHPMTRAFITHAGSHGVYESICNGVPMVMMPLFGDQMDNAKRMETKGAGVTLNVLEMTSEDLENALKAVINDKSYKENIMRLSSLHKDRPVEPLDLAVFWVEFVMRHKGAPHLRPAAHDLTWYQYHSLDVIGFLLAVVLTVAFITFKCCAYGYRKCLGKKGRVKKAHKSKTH
Nature of the data set: Substrate glucuronidation by recombinant UGT1A3. Particulars: for 7-HFC glucuronidation rate: 7-HFC 50 μM.

Data set [3] has as its target UGT2B15 (Homo sapiens, UniProt P54855). Briefly: Substrate glucuronidation by recombinant UGT2B15. Particulars: UGT2B15 Supersomes 250 μg/ml; 7-HFC 50 μM.
The nature of data set [4]: Glucuronidation of UGT substrates by human liver microsomes. As to conditions: human, human liver microsomes, pH 7.5.
The subject of data set [5] is human liver microsomes. The description is as above. As to conditions: for 7-HFC glucuronidation rate: 100 μg/ml protein, 1 mM UDPGA, 15 min.
Data set [6] concerns the target T3, UGT1A6 (Homo sapiens, UniProt P19224).
T3 sequence (P19224 27-532): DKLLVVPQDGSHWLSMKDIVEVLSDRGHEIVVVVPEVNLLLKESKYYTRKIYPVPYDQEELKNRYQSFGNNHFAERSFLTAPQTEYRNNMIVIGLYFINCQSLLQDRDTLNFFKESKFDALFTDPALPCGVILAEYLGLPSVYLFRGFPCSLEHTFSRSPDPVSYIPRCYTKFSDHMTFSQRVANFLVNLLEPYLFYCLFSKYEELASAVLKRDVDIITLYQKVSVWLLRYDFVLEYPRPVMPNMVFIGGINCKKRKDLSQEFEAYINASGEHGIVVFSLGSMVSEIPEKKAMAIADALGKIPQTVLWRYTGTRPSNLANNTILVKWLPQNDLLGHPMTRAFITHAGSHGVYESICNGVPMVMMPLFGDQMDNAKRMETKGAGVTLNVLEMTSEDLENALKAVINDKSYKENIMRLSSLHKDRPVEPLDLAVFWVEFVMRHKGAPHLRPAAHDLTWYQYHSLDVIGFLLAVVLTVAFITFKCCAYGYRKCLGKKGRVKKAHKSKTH

The target of data set [7] is T4, UGT1A9 (Homo sapiens, UniProt O60656).
T4 sequence (O60656 26-530): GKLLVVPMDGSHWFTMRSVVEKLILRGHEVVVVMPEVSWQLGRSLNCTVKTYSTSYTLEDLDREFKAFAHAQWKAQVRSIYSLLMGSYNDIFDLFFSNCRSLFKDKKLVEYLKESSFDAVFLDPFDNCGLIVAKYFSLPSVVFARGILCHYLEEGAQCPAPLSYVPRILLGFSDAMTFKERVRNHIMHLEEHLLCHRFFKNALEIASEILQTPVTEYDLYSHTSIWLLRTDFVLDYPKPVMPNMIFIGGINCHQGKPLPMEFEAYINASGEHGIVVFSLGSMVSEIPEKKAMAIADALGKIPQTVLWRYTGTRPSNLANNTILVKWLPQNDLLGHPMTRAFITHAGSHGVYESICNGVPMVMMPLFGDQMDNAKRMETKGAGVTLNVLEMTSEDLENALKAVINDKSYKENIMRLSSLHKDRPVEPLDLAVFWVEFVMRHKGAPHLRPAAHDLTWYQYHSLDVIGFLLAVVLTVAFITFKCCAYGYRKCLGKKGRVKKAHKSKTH
As to conditions: 30 min, 100 μM, pH 7.5.

“And” between values parts separate entries of the source, which are not always exact repeats. Equal values may be shown once.

Sequence of UGT2B15 (P54855 24-530): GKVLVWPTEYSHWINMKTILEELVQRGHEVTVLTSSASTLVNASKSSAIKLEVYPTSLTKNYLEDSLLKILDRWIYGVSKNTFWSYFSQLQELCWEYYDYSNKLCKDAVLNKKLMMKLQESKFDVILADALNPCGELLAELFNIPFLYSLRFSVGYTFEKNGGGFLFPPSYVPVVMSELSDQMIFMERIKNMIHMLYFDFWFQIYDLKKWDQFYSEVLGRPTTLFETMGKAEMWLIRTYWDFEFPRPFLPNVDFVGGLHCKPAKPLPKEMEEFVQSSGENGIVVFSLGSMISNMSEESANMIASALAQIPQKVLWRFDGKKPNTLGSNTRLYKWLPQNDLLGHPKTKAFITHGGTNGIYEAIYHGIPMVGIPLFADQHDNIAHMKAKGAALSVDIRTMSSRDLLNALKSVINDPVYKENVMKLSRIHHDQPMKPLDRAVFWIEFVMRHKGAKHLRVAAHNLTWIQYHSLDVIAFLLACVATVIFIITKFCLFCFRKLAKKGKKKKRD

For `O=c1cc(C(F)(F)F)c2ccc(O)cc2o1` [7-HFC, 7-hydroxy-4-(trifluoromethyl)coumarin], the “7-HFC glucuronidation rate in Panvera Bacculosomes as % of Gentest Supersomes” value in data set [1] (UGT1A1) came out at 42%; in data set [2] (UGT1A3), 2%. The 7-HFC glucuronidation rate is 346 ± 12 pmol/min/mg protein in data set [1] (UGT1A1 Bacculosomes 250 μg/ml); 816 ± 70 pmol/min/mg protein and 929 ± 7 pmol/min/mg protein in data set [1] (UGT1A1 Supersomes 250 μg/ml); 17 ± 1 pmol/min/mg protein in data set [2] (UGT1A3 Bacculosomes 250 μg/ml); 952 ± 82 pmol/min/mg protein in data set [2] (UGT1A3 Supersomes 250 μg/ml); 976 ± 17 pmol/min/mg protein in data set [3]; 29,907±562 pmol/min/mg in data set [5] (liver microsome lot 032101). Moreover, the 7-HFC glucuronidation rate in data set [5] (liver microsome lot 062101) is 33,039±493 pmol/min/mg; in data set [5] (liver microsome lot 062900) it was 26,405±272 pmol/min/mg. Further, in data set [4], the Michaelis-Menten constant (Km) at 15 min worked out at 85 µM. Besides, the “7-HFC glucuronidation rate in human liver microsomes, times higher than UGT1A6 Supersomes” value in data set [5] is given as 6 times. In data set [5] (human liver microsomes (table footnote)), the 7-HFC metabolism rate is listed as 26,405 ± 272 pmol/min/mg. Further, the “mean apparent Vmax for 7-HFC glucuronidation” value in data set [5] (microsome lot 062900, substrate 20-500 μM) was 60 nmol/min/mg microsomal protein.
As to `CC(CCc1ccccc1)NCC(O)c1ccc(O)c(C(N)=O)c1` (stereo not drawn) [Labetalol, labetalol], the “labetalol metabolism, in words” value in data set [6] is “No detectable metabolism was observed”. In data set [7], the LG1/LG2 amounted to 0.8; the “labetalol metabolite LG1, peak area normalized to internal standard” value is recorded as 38 (1); the “labetalol metabolite LG2, peak area normalized to internal standard” value is 49 (1).

What is called Km is the concentration of substrate that gives half-maximal velocity.
